Source: paper PMC3101181, “Crystal Structures of T. b. rhodesiense Adenosine Kinase Complexed with Inhibitor and Activator: Implications for Catalysis and Hyperactivation” (PLoS Neglected Tropical Diseases, 2011)
Entries after “also recorded” stand apart in the source; their conditions may differ. Where two headings read alike, the source gives them in different places.

Legend:
[1] = biological target: T1, TbrAK (Trypanosoma brucei rhodesiense, UniProt Q584S0); test: Thermal stability assay (thermal unfolding by CD spectroscopy); format: binding; conditions: for Tm ± SD: TbrAK 13 µM, apo TbrAK 43.1±0.4, average of three experiments; for increase of TbrAK melting point when compound 1 was added: 50 µM
T1 sequence (Q584S0 entry or part of it): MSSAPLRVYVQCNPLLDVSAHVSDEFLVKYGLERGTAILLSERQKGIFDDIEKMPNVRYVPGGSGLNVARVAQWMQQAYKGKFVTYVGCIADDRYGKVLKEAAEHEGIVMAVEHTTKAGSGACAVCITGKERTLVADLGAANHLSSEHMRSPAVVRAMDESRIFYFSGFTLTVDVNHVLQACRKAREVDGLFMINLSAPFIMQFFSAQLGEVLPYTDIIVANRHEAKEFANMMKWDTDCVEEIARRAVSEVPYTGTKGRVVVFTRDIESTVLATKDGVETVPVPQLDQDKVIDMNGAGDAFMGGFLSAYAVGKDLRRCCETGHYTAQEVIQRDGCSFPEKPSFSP
Procedure: Thermal unfolding of TbrAK was studied by CD spectroscopy as outlined elsewhere. […] TbrAK in a buffer containing 20 mM Hepes and 150 mM NaCl (pH 7.0) was kept constant at a final concentration of 0.5 mg/ml (13 µM). […] For evaluation of the CD spectra, the buffer spectrum was subtracted from the protein CD spectrum. All thermal unfolding curves were fitted to a two-state model that had been published recently. The mean of three independent experiments is reported.

[2] = biological target: T1, TbrAK; test: Isothermal titration calorimetry (ITC); format: binding
Procedure: Binding affinity constants for adenosine and ATP were determined using isothermal titration calorimetry (ITC). To this end, TbrAK was dialyzed into a buffer consisting of 20 mM Tris, 150 mM NaCl, and 5% glycerol (pH 7.5) and used at concentrations around 90 µM. The ligands were dissolved directly into the dialysis buffer to give a final concentration of around 2 mM. All solutions were filtered and thoroughly degassed before use. A typical titration experiment consisted of a first control injection of 1 µl followed by 50 to 60 injections, each of 5 µl (20 s duration), using a 4 min interval. Raw data were collected, corrected for ligand heats of dilution, integrated and fitted to the appropriate binding model using the Microcal Origin software supplied with the instrument. The measurements were performed in duplicate.

[3] = biological target: T1, TbrAK; conditions: ITC; cited from earlier work
[4] = biological target: TbrAK (adenosine kinase of T. b. rhodesiense) (Trypanosoma brucei rhodesiense, UniProt Q584S0); test: TbrAK activity assay (HPLC, ADP/ATP ratio); format: biochemical; conditions: n.e. = no effect; for efficacy increase (TbrAK activation): efficacy of TbrAK in absence of compound taken as reference; for EC50 / potency EC50 (TbrAK activation): compound range 1–2000 µM, average of three experiments, neither activator nor inhibitor; for EC50: read-out: potency EC50 (TbrAK activation)
Chain of TbrAK (adenosine kinase of T. b. rhodesiense) (Q584S0 entry or part of it): as above
Procedure: The activation potential of a series of compound 1 derivatives (compounds 2–7) was measured using a recently developed HPLC method. The resulting ADP/ATP ratios were calculated and used as a measure of activity. For comparative reasons the activity recorded in absence of compound was set to 100%. The mean of three independent measurements is reported.

[5] = parameters: method as in PMID 19707572, PMID 17949068; conditions: cited from earlier work
[6] = system: Trypanosoma brucei rhodesiense; parameters: method as in PMID 19707572, PMID 17949068; conditions: read-out: IC50 towards Trypanosoma brucei rhodesiense; cited from earlier work
[7] = AP5A, adenosine, ATP at 500 µM, compound 1 at 50 µM

| Structure (SMILES) | Tm ± SD [1, 7] [°C] | efficacy increase (TbrAK activation) [4] | EC50 [4] [µM] | further results |
| --- | --- | --- | --- | --- |
| Nc1ncnc2c1ncn2[C@@H]1O[C@H](COP(=O)(O)OP(=O)(O)OP(=O)(O)OP(=O)(O)OP(=O)(O)OC[C@H]2O[C@@H](n3cnc4c(N)ncnc43)[C@H](O)[C@@H]2O)[C@@H](O)[C@H]1O [AP5A, P^1,P^5-di(adenosine-5′)-pentaphosphate] | 50.5±0.2 |  |  | Δ Tm ([1]; shift versus apo TbrAK (43.1°C), AP5A, adenosine, ATP at 500 µM, compound 1 at 50 µM): 7.4 °C |
| Nc1ncnc2c1ncn2[C@@H]1O[C@H](COP(=O)(O)OP(=O)(O)OP(=O)(O)O)[C@@H](O)[C@H]1O [ATP, adenosine triphosphate] | 42.8±0.1 |  |  |  |
| Nc1ncnc2c1ncn2[C@@H]1O[C@H](CO)[C@@H](O)[C@H]1O [adenosine] | 50.7±0.2 |  |  | Kd [2]: 1.3 ± 0.3 µM; n (molar ratio, single site) ([2]; in presence of compound 1 (150 µM)): 0.9±0.1; ΔHbind, single binding site ([2]; in presence of compound 1 (150 µM), single-site binding model): -15.5 ± 0.2 kcal/mol; Kd ([2]; read-out: KD, low affinity binding site, two-sites non-interacting binding model, mean of two experiments): 27.6 ± 1.1 µM; n1 (molar ratio, high affinity site) ([2]; two-sites model): 0.9±0.1; n2 (molar ratio, low affinity site) ([2]; two-sites model): 0.8±0.1 |
| c1ccc(Oc2ccc(-c3cc(N4CCOCC4)[nH]n3)cc2)cc1 [compound 1, 4-[5-(4-phenoxyphenyl)-2H-pyrazol-3-yl]morpholine] | 47.9±0.1 | 3.5 fold |  | number of binding sites on TbrAK [3]: two binding sites; increase of TbrAK melting point when compound 1 was added ([1]; in presence of adenosine): 0.4 °C; increase of TbrAK melting point when compound 1 was added ([1]; in presence of both adenosine and ATP): 0.7 °C; cytotoxicity [5]: low cytotoxicity; IC50 [6]: 1 µM |
| c1ccc(Oc2ccc(-c3cc(C4CCOCC4)[nH]n3)cc2)cc1 [compound 2, 3-(4-phenoxyphenyl)-5-(tetrahydropyran-4-yl)-1H-pyrazole] |  | 2.0 fold | 25.4 |  |
| CCc1ccc(-c2cc(C3CCOCC3)[nH]n2)cc1 [compound 3, 3-(4-ethylphenyl)-5-(tetrahydropyran-4-yl)-1H-pyrazole] |  | 2.5 fold | 168 |  |
| Clc1ccc(-c2cc(N3CCOCC3)[nH]n2)cc1 [compound 4, 4-[5-(4-chlorophenyl)-2H-pyrazol-3-yl]morpholine] |  | 2.0 fold | 135 |  |
| c1ccc(Oc2ccc(-c3cc(CN4CCOCC4)[nH]n3)cc2)cc1 [compound 5, 4-[5-(4-phenoxyphenyl)-2H-pyrazol-3-ylmethyl]morpholine] |  | 1.5 fold | 195 |  |
| c1ccc(Oc2ccc(-c3cc(N4CCOCC4)on3)cc2)cc1 [compound 6, 4-[3-(4-phenoxyphenyl)isoxazol-5-yl]morpholine] |  | loses all activation capacity; also recorded: n.e. ^c |  | potency EC50 (TbrAK activation) [4]: n.e. ^c |
| O=[N+]([O-])c1ccc(Oc2ccc(-c3cc(N4CCOCC4)[nH]n3)cc2)cc1 [compound 7, 4-{5-[4-(4-nitrophenoxy)phenyl]-2H-pyrazol-3-yl}morpholine] |  | loses all activation capacity; also recorded: n.e. ^c |  | potency EC50 (TbrAK activation) [4]: n.e. |
